Experimental data published in PubChem BioAssay (NCI).
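Grown in 96-well plates, cells were treated for 48 hours with each compound at five concentrations. Insufficient inhibition: endpoint recorded as highest concentration tested. GI50 marks 50% less growth. TGI: total growth inhibition.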

Columns and labels:
Assay in all cases: DTP human tumour cell line panel, 48 h
786-0 renal = tested on: 786-0 renal
A498 renal = tested on: A498 renal
A549 NSCLC = tested on: A549 NSCLC
ACHN renal = tested on: ACHN renal
BT-549 breast = tested on: BT-549 breast
CAKI-1 renal = tested on: CAKI-1 renal
CCRF-CEM leukemia = tested on: CCRF-CEM leukemia
COLO 205 colon = tested on: COLO 205 colon
DU-145 prostate = tested on: DU-145 prostate
EKVX NSCLC = tested on: EKVX NSCLC
HCC-2998 colon = tested on: HCC-2998 colon
HCT-116 colon = tested on: HCT-116 colon
HCT-15 colon = tested on: HCT-15 colon
HL-60(TB) leukemia = tested on: HL-60(TB) leukemia
HOP-62 NSCLC = tested on: HOP-62 NSCLC
HOP-92 NSCLC = tested on: HOP-92 NSCLC
HS 578T breast = tested on: HS 578T breast
HT29 colon = tested on: HT29 colon
IGROV1 ovarian = tested on: IGROV1 ovarian
K-562 leukemia = tested on: K-562 leukemia
KM12 colon = tested on: KM12 colon
LOX IMVI melanoma = tested on: LOX IMVI melanoma
MALME-3M melanoma = tested on: MALME-3M melanoma
MCF7 breast = tested on: MCF7 breast
MDA-MB-231 breast = tested on: MDA-MB-231 breast
MDA-MB-435 = tested on: MDA-MB-435
MOLT-4 leukemia = tested on: MOLT-4 leukemia
NCI-H226 lung = tested on: NCI-H226 lung
NCI-H23 lung = tested on: NCI-H23 lung
NCI-H460 lung = tested on: NCI-H460 lung
NCI-H522 lung = tested on: NCI-H522 lung
NCI/ADR-RES ovarian = tested on: NCI/ADR-RES ovarian
OVCAR-3 ovarian = tested on: OVCAR-3 ovarian
OVCAR-4 ovarian = tested on: OVCAR-4 ovarian
OVCAR-5 ovarian = tested on: OVCAR-5 ovarian
OVCAR-8 ovarian = tested on: OVCAR-8 ovarian
PC-3 prostate = tested on: PC-3 prostate
RPMI-8226 leukemia = tested on: RPMI-8226 leukemia
RXF 393 renal = tested on: RXF 393 renal
SF-268 CNS = tested on: SF-268 CNS
SF-295 CNS = tested on: SF-295 CNS
SF-539 CNS = tested on: SF-539 CNS
SK-MEL-2 melanoma = tested on: SK-MEL-2 melanoma
SK-MEL-28 melanoma = tested on: SK-MEL-28 melanoma
SK-MEL-5 melanoma = tested on: SK-MEL-5 melanoma
SK-OV-3 ovarian = tested on: SK-OV-3 ovarian
SN12C renal = tested on: SN12C renal
SNB-19 CNS = tested on: SNB-19 CNS
SNB-75 CNS = tested on: SNB-75 CNS
SR leukemia = tested on: SR leukemia
SW-620 colon = tested on: SW-620 colon
T-47D breast = tested on: T-47D breast
TK-10 renal = tested on: TK-10 renal
U251 CNS = tested on: U251 CNS
UACC-257 melanoma = tested on: UACC-257 melanoma
UACC-62 melanoma = tested on: UACC-62 melanoma
UO-31 renal = tested on: UO-31 renal

`CC(C)Cc1cc(-c2cccn2C)c(C#N)c(=O)[nH]1` gave a GI50 (786-0 renal) of over 100 µM, a TGI (786-0 renal) of over 100 µM and a GI50 (A498 renal) of over 100 µM. For the same compound, the TGI (A498 renal) was over 100 µM, the GI50 (A549 NSCLC) was over 100 µM and the TGI (A549 NSCLC) was over 100 µM. It also gave a GI50 (ACHN renal) of over 100 µM, a TGI (ACHN renal) of over 100 µM and a GI50 (BT-549 breast) of over 100 µM. It also gave a TGI (BT-549 breast) of over 100 µM, a GI50 (CAKI-1 renal) of over 100 µM and a TGI (CAKI-1 renal) of over 100 µM. The GI50 (CCRF-CEM leukemia) was 23.4 µM, the TGI (CCRF-CEM leukemia) was over 100 µM and the GI50 (COLO 205 colon) was over 100 µM. For the same compound, the TGI (COLO 205 colon) was over 100 µM, the GI50 (DU-145 prostate) was over 100 µM and the TGI (DU-145 prostate) was over 100 µM. It also gave a GI50 (EKVX NSCLC) of over 100 µM, a TGI (EKVX NSCLC) of over 100 µM and a GI50 (HCC-2998 colon) of over 100 µM. The TGI (HCC-2998 colon) was over 100 µM, the GI50 (HCT-116 colon) was over 100 µM and the TGI (HCT-116 colon) was over 100 µM. The GI50 (HCT-15 colon) was over 100 µM, the TGI (HCT-15 colon) was over 100 µM and the GI50 (HL-60(TB) leukemia) was 45.8 µM. For the same compound, the TGI (HL-60(TB) leukemia) was over 100 µM, the GI50 (HOP-62 NSCLC) was over 100 µM and the TGI (HOP-62 NSCLC) was over 100 µM. The GI50 (HOP-92 NSCLC) was over 100 µM, the TGI (HOP-92 NSCLC) was over 100 µM and the GI50 (HS 578T breast) was over 100 µM. It also gave a TGI (HS 578T breast) of over 100 µM, a GI50 (HT29 colon) of over 100 µM and a TGI (HT29 colon) of over 100 µM. It also gave a GI50 (IGROV1 ovarian) of over 100 µM, a TGI (IGROV1 ovarian) of over 100 µM and a GI50 (K-562 leukemia) of over 100 µM. For the same compound, the TGI (K-562 leukemia) was over 100 µM, the GI50 (KM12 colon) was over 100 µM and the TGI (KM12 colon) was over 100 µM. For the same compound, the GI50 (LOX IMVI melanoma) was over 100 µM, the TGI (LOX IMVI melanoma) was over 100 µM and the GI50 (MALME-3M melanoma) was over 100 µM. The TGI (MALME-3M melanoma) was over 100 µM, the GI50 (MCF7 breast) was over 100 µM and the TGI (MCF7 breast) was over 100 µM. For the same compound, the GI50 (MDA-MB-231 breast) was over 100 µM, the TGI (MDA-MB-231 breast) was over 100 µM and the GI50 (MDA-MB-435) was over 100 µM. It also gave a TGI (MDA-MB-435) of over 100 µM, a GI50 (MOLT-4 leukemia) of 22.5 µM and a TGI (MOLT-4 leukemia) of over 100 µM. It also gave a GI50 (NCI-H226 lung) of over 100 µM, a TGI (NCI-H226 lung) of over 100 µM and a GI50 (NCI-H23 lung) of over 100 µM. For the same compound, the TGI (NCI-H23 lung) was over 100 µM, the GI50 (NCI-H460 lung) was over 100 µM and the TGI (NCI-H460 lung) was over 100 µM. For the same compound, the GI50 (NCI-H522 lung) was over 100 µM, the TGI (NCI-H522 lung) was over 100 µM and the GI50 (NCI/ADR-RES ovarian) was over 100 µM. The TGI (NCI/ADR-RES ovarian) was over 100 µM, the GI50 (OVCAR-3 ovarian) was over 100 µM and the TGI (OVCAR-3 ovarian) was over 100 µM. It also gave a GI50 (OVCAR-4 ovarian) of 69.4 µM, a TGI (OVCAR-4 ovarian) of over 100 µM and a GI50 (OVCAR-5 ovarian) of over 100 µM. The TGI (OVCAR-5 ovarian) was over 100 µM, the GI50 (OVCAR-8 ovarian) was over 100 µM and the TGI (OVCAR-8 ovarian) was over 100 µM. The GI50 (PC-3 prostate) was over 100 µM, the TGI (PC-3 prostate) was over 100 µM and the GI50 (RPMI-8226 leukemia) was over 100 µM. It also gave a TGI (RPMI-8226 leukemia) of over 100 µM, a GI50 (RXF 393 renal) of over 100 µM and a TGI (RXF 393 renal) of over 100 µM. For the same compound, the GI50 (SF-268 CNS) was over 100 µM, the TGI (SF-268 CNS) was over 100 µM and the GI50 (SF-295 CNS) was over 100 µM. It also gave a TGI (SF-295 CNS) of over 100 µM, a GI50 (SF-539 CNS) of over 100 µM and a TGI (SF-539 CNS) of over 100 µM. For the same compound, the GI50 (SK-MEL-2 melanoma) was over 100 µM, the TGI (SK-MEL-2 melanoma) was over 100 µM and the GI50 (SK-MEL-28 melanoma) was over 100 µM. It also gave a TGI (SK-MEL-28 melanoma) of over 100 µM, a GI50 (SK-MEL-5 melanoma) of over 100 µM and a TGI (SK-MEL-5 melanoma) of over 100 µM. The GI50 (SK-OV-3 ovarian) was over 100 µM, the TGI (SK-OV-3 ovarian) was over 100 µM and the GI50 (SN12C renal) was over 100 µM. The TGI (SN12C renal) was over 100 µM, the GI50 (SNB-19 CNS) was over 100 µM and the TGI (SNB-19 CNS) was over 100 µM. For the same compound, the GI50 (SNB-75 CNS) was 40.1 µM, the TGI (SNB-75 CNS) was over 100 µM and the GI50 (SR leukemia) was 59.7 µM. For the same compound, the TGI (SR leukemia) was over 100 µM, the GI50 (SW-620 colon) was over 100 µM and the TGI (SW-620 colon) was over 100 µM. It also gave a GI50 (T-47D breast) of over 100 µM, a TGI (T-47D breast) of over 100 µM and a GI50 (TK-10 renal) of over 100 µM. It also gave a TGI (TK-10 renal) of over 100 µM, a GI50 (U251 CNS) of over 100 µM and a TGI (U251 CNS) of over 100 µM. For the same compound, the GI50 (UACC-257 melanoma) was over 100 µM, the TGI (UACC-257 melanoma) was over 100 µM and the GI50 (UACC-62 melanoma) was over 100 µM. The TGI (UACC-62 melanoma) was over 100 µM, the GI50 (UO-31 renal) was over 100 µM and the TGI (UO-31 renal) was over 100 µM.
